{"source": "ChEMBL document CHEMBL2073836", "about": "“Interactions of nonsteroidal anti-inflammatory drugs with rat renal organic anion transporter, OAT-K1” (J Pharmacol Exp Ther, 1997)", "assay_type_in_all_cases": "functional, cell-based", "key": {"[1]": {"biological_target": "T1, Solute carrier organic anion transporter family member 1A3 (Rattus norvegicus, UniProt P70502)", "T1 sequence (P70502 whole entry)": "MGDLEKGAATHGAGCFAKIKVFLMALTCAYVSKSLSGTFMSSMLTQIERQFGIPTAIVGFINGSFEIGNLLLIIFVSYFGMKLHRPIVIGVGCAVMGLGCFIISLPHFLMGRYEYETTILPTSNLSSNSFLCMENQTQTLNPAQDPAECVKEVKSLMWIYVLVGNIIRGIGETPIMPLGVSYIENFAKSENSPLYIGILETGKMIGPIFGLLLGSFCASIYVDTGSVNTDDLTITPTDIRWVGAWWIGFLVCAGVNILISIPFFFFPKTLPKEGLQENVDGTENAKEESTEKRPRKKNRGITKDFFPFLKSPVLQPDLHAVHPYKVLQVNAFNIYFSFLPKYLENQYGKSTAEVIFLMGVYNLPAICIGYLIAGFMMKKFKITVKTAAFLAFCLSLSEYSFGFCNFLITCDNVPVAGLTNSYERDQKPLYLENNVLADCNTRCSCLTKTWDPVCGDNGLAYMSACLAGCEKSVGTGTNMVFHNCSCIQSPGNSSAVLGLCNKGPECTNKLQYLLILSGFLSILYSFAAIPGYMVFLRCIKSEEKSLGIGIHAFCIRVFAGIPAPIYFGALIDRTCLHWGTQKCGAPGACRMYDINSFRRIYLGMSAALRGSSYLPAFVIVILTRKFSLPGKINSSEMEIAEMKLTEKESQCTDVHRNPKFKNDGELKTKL", "test": "TP_TRANSPORTER: inhibition of MTX uptake (MTX: 0.1 uM, Flufenamate: 1000 uM) in OAT-K1-expressing LLC-PK1 cells", "details": "pig, llc-pk1, 1000 µM"}, "[2]": {"biological_target": "T1, Solute carrier organic anion transporter family member 1A3", "test": "TP_TRANSPORTER: inhibition of MTX uptake (MTX: 0.1 uM, Ibuprofen: 1000 uM) in OAT-K1-expressing LLC-PK1 cells", "details": "pig, llc-pk1, 1000 µM"}, "[3]": {"biological_target": "T1, Solute carrier organic anion transporter family member 1A3", "test": "TP_TRANSPORTER: inhibition of MTX uptake in OAT-K1-expressing LLC-PK1 cells"}, "[4]": {"biological_target": "T1, Solute carrier organic anion transporter family member 1A3", "test": "TP_TRANSPORTER: inhibition of MTX uptake (MTX: 0.1 uM, Phenylbutazone: 1000 uM) in OAT-K1-expressing LLC-PK1 cells", "details": "pig, llc-pk1, 1000 µM"}}, "data": [{"smiles": "O=C(O)c1ccccc1Nc1cccc(C(F)(F)F)c1", "note": "[FLUFENAMIC ACID]", "values": [{"measurement": "Activity", "setting": "[1]", "value": "inhibitor [(at a rough estimate) 55 % of control]"}]}, {"smiles": "CC(C)Cc1ccc(C(C)C(=O)O)cc1", "note": "(stereo not given) [IBUPROFEN]", "values": [{"measurement": "Activity", "setting": "[2]", "value": "inhibitor [(at a rough estimate) 65 % of control]"}]}, {"smiles": "COc1ccc2c(c1)c(CC(=O)O)c(C)n2C(=O)c1ccc(Cl)cc1", "note": "[INDOMETHACIN]", "values": [{"measurement": "Ki", "setting": "[3]", "value": 1000, "unit": "µM"}]}, {"smiles": "CC(C(=O)O)c1cccc(C(=O)c2ccccc2)c1", "note": "(stereo not given) [KETOPROFEN]", "values": [{"measurement": "Ki", "setting": "[3]", "value": 1900, "unit": "µM"}]}, {"smiles": "CCCCC1C(=O)N(c2ccccc2)N(c2ccccc2)C1=O", "note": "[PHENYLBUTAZONE]", "values": [{"measurement": "Activity", "setting": "[4]", "value": "inhibitor [(at a rough estimate) 70 % of control]"}]}]}
